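1) Cells in 96-well plates. 2) Compound, 48 h, 5 concentrations. 3) Linear interpolation between surrounding doses. 4) Unreached endpoint = highest concentration. At the GI50, growth is halved.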 Active and inactive are the calls of the source. Cut-off read from the data, not from the text of the source: active = GI50 up to about 1.1 µM and inactive = higher.
How the values were obtained:
Assay in all cases: growth of human tumour cells (NCI), 48 h
SK-OV-3 = system: SK-OV-3
NCI-H522 = system: NCI-H522
SK-MEL-28 = system: SK-MEL-28
HCT-15 = system: HCT-15
EKVX = system: EKVX
HCT-116 = system: HCT-116
HOP-62 = system: HOP-62
MOLT-4 = system: MOLT-4
NCI/ADR-RES = system: NCI/ADR-RES
SK-MEL-5 = system: SK-MEL-5
SW-620 = system: SW-620
UACC-257 = system: UACC-257
HOP-92 = system: HOP-92
KM12 = system: KM12
NCI-H23 = system: NCI-H23
OVCAR-4 = system: OVCAR-4
NCI-H226 = system: NCI-H226
UO-31 = system: UO-31
SF-295 = system: SF-295
A498 = system: A498

In the case of `CC(/C=N/N=C(N)N)=N\N=C(N)N`, the GI50 (SK-OV-3) was 43.4 µM (inactive), the GI50 (NCI-H522) was 29.7 µM (inactive) and the GI50 (SK-MEL-28) was 64.6 µM (inactive). For the same compound, the GI50 (HCT-15) was 94 µM, the GI50 (EKVX) was 29.1 µM (inactive) and the GI50 (HCT-116) was 6.41 µM (inactive). For the same compound, the GI50 (HOP-62) was 6.58 µM (inactive), the GI50 (MOLT-4) was 9.25 µM (inactive) and the GI50 (NCI/ADR-RES) was 4.15 µM (inactive). The GI50 (SK-MEL-5) was 191 µM (inactive), the GI50 (SW-620) was 7.21 µM (inactive) and the GI50 (UACC-257) was 140 µM (inactive). The GI50 (HOP-92) was 3.43 µM (inactive), the GI50 (KM12) was 2.83 µM (inactive) and the GI50 (NCI-H23) was 18.5 µM (inactive). The GI50 (OVCAR-4) was 3.4 µM (inactive), the GI50 (NCI-H226) was 38.5 µM (inactive) and the GI50 (UO-31) was 9.82 µM (inactive). For the same compound, the GI50 (SF-295) was 92.3 µM (inactive) and the GI50 (A498) was 253 µM (inactive).
For `CC1=CC2c3cccc4[nH]cc(c34)CC2N(C)C1` (stereo not given), the GI50 (SK-OV-3) was > 100 µM (inactive), the GI50 (NCI-H522) was > 100 µM (inactive) and the GI50 (SK-MEL-28) was > 100 µM (inactive). The GI50 (HCT-15) was over 100 µM, the GI50 (EKVX) was > 100 µM (inactive) and the GI50 (HCT-116) was > 100 µM (inactive). The GI50 (HOP-62) was 15.8 µM (inactive), the GI50 (MOLT-4) was > 68.1 µM (inactive) and the GI50 (NCI/ADR-RES) was > 100 µM (inactive). The GI50 (SK-MEL-5) was > 76.9 µM (inactive), the GI50 (SW-620) was > 100 µM (inactive) and the GI50 (UACC-257) was 22.4 µM (inactive). The GI50 (HOP-92) was 24.4 µM (inactive), the GI50 (KM12) was > 100 µM (inactive) and the GI50 (NCI-H23) was > 100 µM (inactive). For the same compound, the GI50 (OVCAR-4) was > 100 µM (inactive), the GI50 (NCI-H226) was > 100 µM (inactive) and the GI50 (UO-31) was 11.9 µM (inactive). For the same compound, the GI50 (SF-295) was 53.3 µM (inactive) and the GI50 (A498) was > 76.6 µM (inactive).
`COC1C(O)CC(OC2CC(Oc3cc4cc5c(c(O)c4c(O)c3C)C(=O)[C@@H](OC3CC(OC4CC(OC6CC(C)(O)C(OC(C)=O)C(C)O6)C(O)C(C)O4)C(O)C(C)O3)[C@H]([C@H](OC)C(=O)[C@@H](O)[C@@H](C)O)C5)OC(C)C2OC(C)=O)OC1C` (stereo not given in full) [CHROMOMYCIN] was tested, and the GI50 (SK-OV-3) was 0.00673 µM (active), the GI50 (NCI-H522) was 0.00366 µM (active) and the GI50 (SK-MEL-28) was 0.00368 µM (active). The GI50 (HCT-15) was 0.0138 µM, the GI50 (EKVX) was 0.00532 µM (active) and the GI50 (HCT-116) was 0.00333 µM (active). For the same compound, the GI50 (HOP-62) was 0.00355 µM (active), the GI50 (MOLT-4) was < 0.01 µM (active) and the GI50 (NCI/ADR-RES) was 0.75 µM (active). For the same compound, the GI50 (SK-MEL-5) was < 0.01 µM (active), the GI50 (SW-620) was < 0.01 µM (active) and the GI50 (UACC-257) was < 0.01 µM (active). The GI50 (HOP-92) was < 0.01 µM (active), the GI50 (KM12) was < 0.01 µM (active) and the GI50 (NCI-H23) was < 0.01 µM (active). For the same compound, the GI50 (OVCAR-4) was < 0.01 µM (active), the GI50 (NCI-H226) was < 0.01 µM (active) and the GI50 (UO-31) was 0.0614 µM (active). For the same compound, the GI50 (SF-295) was 0.0139 µM (active) and the GI50 (A498) was 0.0038 µM (active).
In the case of `Nc1ncc2c(n1)-c1ccccc1OC2`, the GI50 (SK-OV-3) was > 100 µM (inactive), the GI50 (NCI-H522) was > 100 µM (inactive) and the GI50 (SK-MEL-28) was > 100 µM (inactive). The GI50 (HCT-15) was over 100 µM, the GI50 (EKVX) was 94.4 µM (inactive) and the GI50 (HCT-116) was > 100 µM (inactive). For the same compound, the GI50 (HOP-62) was 76 µM (inactive), the GI50 (MOLT-4) was > 100 µM (inactive) and the GI50 (NCI/ADR-RES) was > 100 µM (inactive). The GI50 (SK-MEL-5) was > 100 µM (inactive), the GI50 (SW-620) was > 100 µM (inactive) and the GI50 (UACC-257) was > 100 µM (inactive). The GI50 (HOP-92) was 98.4 µM (inactive), the GI50 (KM12) was > 100 µM (inactive) and the GI50 (NCI-H23) was > 100 µM (inactive). For the same compound, the GI50 (OVCAR-4) was > 31.6 µM (inactive), the GI50 (NCI-H226) was 36.6 µM (inactive) and the GI50 (UO-31) was 45.2 µM (inactive). The GI50 (SF-295) was > 100 µM (inactive) and the GI50 (A498) was 51.2 µM (inactive).
`O=S(=O)(O)c1cc2ccc1/C=C\c1ccc(cc1S(=O)(=O)O)/N=N\c1ccc(c(S(=O)(=O)O)c1)/C=C\c1ccc(cc1S(=O)(=O)O)/N=N\2` was tested, and the GI50 (SK-OV-3) was > 100 µM (inactive), the GI50 (NCI-H522) was > 100 µM (inactive) and the GI50 (SK-MEL-28) was > 100 µM (inactive). The GI50 (HCT-15) was over 100 µM, the GI50 (EKVX) was > 100 µM (inactive) and the GI50 (HCT-116) was > 100 µM (inactive). For the same compound, the GI50 (HOP-62) was > 100 µM (inactive), the GI50 (MOLT-4) was > 100 µM (inactive) and the GI50 (NCI/ADR-RES) was > 100 µM (inactive). For the same compound, the GI50 (SK-MEL-5) was > 100 µM (inactive), the GI50 (SW-620) was > 100 µM (inactive) and the GI50 (UACC-257) was > 100 µM (inactive). For the same compound, the GI50 (HOP-92) was > 100 µM (inactive), the GI50 (KM12) was > 100 µM (inactive) and the GI50 (NCI-H23) was > 100 µM (inactive). For the same compound, the GI50 (OVCAR-4) was > 86.1 µM (inactive), the GI50 (NCI-H226) was > 100 µM (inactive) and the GI50 (UO-31) was > 100 µM (inactive). The GI50 (SF-295) was > 100 µM (inactive) and the GI50 (A498) was > 100 µM (inactive).
In the case of `COc1cc([C@@H]2c3cc4c(c(O[C@@H]5O[C@H]6CO[C@@H](C)O[C@H]6[C@H](O)[C@@H]5O)c3C[C@H]3COC(=O)[C@@H]32)OCO4)cc(OC)c1O`, the GI50 (SK-OV-3) was 19.6 µM (inactive), the GI50 (NCI-H522) was 2.54 µM (inactive) and the GI50 (SK-MEL-28) was 5.81 µM (inactive). For the same compound, the GI50 (HCT-15) was 14.6 µM, the GI50 (EKVX) was 5.55 µM (inactive) and the GI50 (HCT-116) was 6.78 µM (inactive). For the same compound, the GI50 (HOP-62) was 27.2 µM (inactive), the GI50 (MOLT-4) was 10.6 µM (inactive) and the GI50 (NCI/ADR-RES) was 4.02 µM (inactive). The GI50 (SK-MEL-5) was 5.08 µM (inactive), the GI50 (SW-620) was 8.3 µM (inactive) and the GI50 (UACC-257) was 5.93 µM (inactive). The GI50 (HOP-92) was 25.7 µM (inactive), the GI50 (KM12) was 8.75 µM (inactive) and the GI50 (NCI-H23) was 15.1 µM (inactive). For the same compound, the GI50 (OVCAR-4) was 9.16 µM (inactive), the GI50 (NCI-H226) was 3.75 µM (inactive) and the GI50 (UO-31) was 45.6 µM (inactive). For the same compound, the GI50 (SF-295) was 3.48 µM (inactive) and the GI50 (A498) was 4.11 µM (inactive).
